Test results reported in ChEMBL document CHEMBL4339188, “Tackling neuroinflammation and cholinergic deficit in Alzheimer's disease: Multi-target inhibitors of cholinesterases, cyclooxygenase-2 and 15-lipoxygenase” (Eur J Med Chem, 2019).

Columns and labels:
in vitro [1] = settings: human, HepG2 cells
Description: Cytotoxicity against human HepG2 cell assessed as safe dose that maintains 100% cell viability incubated for 72 hrs by MTT assay

Acetylcholinesterase [2] = biological target: Acetylcholinesterase (Electrophorus electricus, UniProt O42275); experiment: Inhibition of electric eel AChE using acetylthiocholine iodide as substrate incubated for 10 mins by spectrophotometry based Ellman's method
Acetylcholinesterase (Electrophorus electricus, UniProt O42275), sequence (O42275 whole entry): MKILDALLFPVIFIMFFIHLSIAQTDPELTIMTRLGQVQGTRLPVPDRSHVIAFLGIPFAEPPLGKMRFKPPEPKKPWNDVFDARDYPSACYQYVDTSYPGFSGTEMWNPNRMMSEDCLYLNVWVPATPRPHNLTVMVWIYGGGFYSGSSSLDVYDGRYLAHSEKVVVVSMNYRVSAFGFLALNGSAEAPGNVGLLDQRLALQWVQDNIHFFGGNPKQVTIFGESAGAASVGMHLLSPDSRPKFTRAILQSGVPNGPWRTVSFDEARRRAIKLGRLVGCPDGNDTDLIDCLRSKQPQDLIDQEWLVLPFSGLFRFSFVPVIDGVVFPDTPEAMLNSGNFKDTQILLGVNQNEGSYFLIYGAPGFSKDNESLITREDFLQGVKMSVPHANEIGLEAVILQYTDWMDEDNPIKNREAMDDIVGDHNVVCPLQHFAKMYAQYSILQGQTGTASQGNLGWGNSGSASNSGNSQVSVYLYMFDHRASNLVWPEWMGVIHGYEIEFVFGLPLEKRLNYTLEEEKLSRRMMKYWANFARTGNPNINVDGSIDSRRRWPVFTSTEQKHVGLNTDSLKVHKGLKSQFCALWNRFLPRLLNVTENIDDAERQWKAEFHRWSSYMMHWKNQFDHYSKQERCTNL

in vitro [3] = settings: mouse, mouse neuronal cells
Description: Toxicity in mouse neuronal cells assessed as safe dose that maintains 100% cell viability incubated for 72 hrs by MTT assay

Cholinesterase = Cholinesterase (Homo sapiens, UniProt P06276); experiment: Inhibition of human serum BChE using butyrylthiocholine iodide as substrate pre-incubated for 20 mins before substrate addition and measured for 180 secs by spectrophotometry based Ellman's method
Cholinesterase, sequence (P06276 whole entry): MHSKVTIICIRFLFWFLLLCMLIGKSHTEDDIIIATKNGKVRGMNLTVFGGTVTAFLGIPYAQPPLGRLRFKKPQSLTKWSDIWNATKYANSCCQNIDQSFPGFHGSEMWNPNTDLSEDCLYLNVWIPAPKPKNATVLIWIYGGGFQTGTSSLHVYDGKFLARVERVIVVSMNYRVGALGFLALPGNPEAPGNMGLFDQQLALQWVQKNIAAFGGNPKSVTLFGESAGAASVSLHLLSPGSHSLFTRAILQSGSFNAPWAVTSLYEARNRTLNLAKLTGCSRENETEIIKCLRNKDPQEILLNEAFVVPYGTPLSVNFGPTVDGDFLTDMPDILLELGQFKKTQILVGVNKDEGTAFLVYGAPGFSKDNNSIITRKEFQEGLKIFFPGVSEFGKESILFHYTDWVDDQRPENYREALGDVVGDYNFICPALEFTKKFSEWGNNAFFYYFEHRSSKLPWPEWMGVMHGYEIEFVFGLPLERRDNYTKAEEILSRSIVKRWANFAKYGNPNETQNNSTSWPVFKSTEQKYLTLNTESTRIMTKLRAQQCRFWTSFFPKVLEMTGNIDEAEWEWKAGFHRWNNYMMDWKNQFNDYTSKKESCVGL

Acetylcholinesterase [4] = biological target: Acetylcholinesterase (Homo sapiens, UniProt P22303); experiment: Inhibition of recombinant human AChE using acetylthiocholine iodide as substrate pre-incubated for 20 mins before substrate addition and measured for 180 secs by spectrophotometry based Ellman's method
Acetylcholinesterase (Homo sapiens, UniProt P22303), sequence (P22303 whole entry): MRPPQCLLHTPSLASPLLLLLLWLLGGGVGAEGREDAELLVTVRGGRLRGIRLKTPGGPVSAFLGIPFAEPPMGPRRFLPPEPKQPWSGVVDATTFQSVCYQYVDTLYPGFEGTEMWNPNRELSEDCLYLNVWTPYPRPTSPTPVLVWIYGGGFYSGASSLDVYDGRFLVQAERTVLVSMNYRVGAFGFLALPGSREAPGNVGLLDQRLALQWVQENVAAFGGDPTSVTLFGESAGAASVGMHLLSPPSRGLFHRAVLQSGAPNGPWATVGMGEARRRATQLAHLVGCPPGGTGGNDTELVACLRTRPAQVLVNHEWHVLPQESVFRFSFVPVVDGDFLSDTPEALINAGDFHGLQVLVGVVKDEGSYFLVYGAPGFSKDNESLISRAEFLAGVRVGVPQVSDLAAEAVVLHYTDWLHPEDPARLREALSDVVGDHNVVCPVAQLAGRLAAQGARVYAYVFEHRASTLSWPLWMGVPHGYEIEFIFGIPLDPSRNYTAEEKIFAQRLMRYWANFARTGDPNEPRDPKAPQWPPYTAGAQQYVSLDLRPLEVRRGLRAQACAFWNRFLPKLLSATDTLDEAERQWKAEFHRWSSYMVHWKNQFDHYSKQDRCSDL

HepG2 = experiment: cells; settings: Homo sapiens, HepG2, 72 h
Description: Cytotoxicity against human HepG2 cell assessed as reduction in cell viability incubated for 72 hrs by MTT assay

in vitro [5] = settings: mouse, mouse neuronal cells; remark: listed apart in the source
Description: Toxicity in mouse neuronal cells assessed as reduction in cell viability incubated for 72 hrs by MTT assay

in vitro [6] = settings: PAMPA, pH 7.4
[7] = biological target: T1, Prostaglandin G/H synthase 1 (Ovis aries, UniProt P05979); experiment: Inhibition of ovine COX -1 by colorimetric inhibitor screening assay kit method
T1 sequence (P05979 whole entry): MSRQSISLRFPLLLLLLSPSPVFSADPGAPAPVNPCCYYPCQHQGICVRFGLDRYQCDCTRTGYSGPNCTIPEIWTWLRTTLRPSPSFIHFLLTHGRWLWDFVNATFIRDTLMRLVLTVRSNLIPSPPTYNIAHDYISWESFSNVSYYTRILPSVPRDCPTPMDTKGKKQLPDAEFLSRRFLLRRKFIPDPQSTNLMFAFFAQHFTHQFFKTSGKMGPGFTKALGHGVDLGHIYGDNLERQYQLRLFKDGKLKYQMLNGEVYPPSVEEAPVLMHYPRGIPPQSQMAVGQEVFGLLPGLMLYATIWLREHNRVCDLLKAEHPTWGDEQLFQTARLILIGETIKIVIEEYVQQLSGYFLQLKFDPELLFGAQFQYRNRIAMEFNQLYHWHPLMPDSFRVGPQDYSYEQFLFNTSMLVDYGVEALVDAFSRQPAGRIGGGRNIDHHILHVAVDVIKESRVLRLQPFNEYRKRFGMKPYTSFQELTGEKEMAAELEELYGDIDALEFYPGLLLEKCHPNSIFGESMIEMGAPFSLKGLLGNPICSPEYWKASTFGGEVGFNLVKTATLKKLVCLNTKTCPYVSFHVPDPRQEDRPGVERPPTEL

[8] = Safety index, ratio of EC100 for test compound to EC100 for tacrine for cytotoxicity against human HepG2 cell assessed as safe dose that maintains 100% cell viability incubated for 72 hrs by MTT assay; assay type: cell-based; settings: HepG2 cells
PC-12 [9] = experiment: Anti-inflammatory activity in lipopolysaccharide challenged rat PC12 cells assessed as decrease in TNFalpha production at 100 uM pre-incubated for 24 hrs before LPS challenge for 48 hrs by immunoblot analysis; assay type: functional
PC-12 [10] = experiment: Cytotoxicity against rat PC12 cells assessed as reduction in cell viability up to 300 uM by MTS assay; assay type: cell-based
PC-12 [11] = experiment: Anti-inflammatory activity in lipopolysaccharide challenged rat PC12 cells assessed as decrease in interleukin-1 beta production at 100 uM pre-incubated for 24 hrs before LPS challenge for 48 hrs by immunoblot analysis; assay type: functional

Compound	MNTC at 72 h (in vitro [1]) [µM]	IC50 (Acetylcholinesterase [2]) [µM]	MNTC at 72 h (in vitro [3]) [nM]	IC50 (Cholinesterase) [µM]	IC50 (Acetylcholinesterase [4]) [µM]	IC50 (HepG2) [µM]	IC50 at 72 h (in vitro [5]) [µM]	Papp at 6 h, 50 µM (in vitro [6]) [×10⁻⁶ cm/s]	IC50 [7] [µM]	selectivity ratio at 72 h [8]	inhibition at 100 µM (PC-12 [9]) [%]	Activity (PC-12 [10])	inhibition at 100 µM (PC-12 [11]) [%]
S=C(NNc1c2c(nc3ccccc13)CCCC2)Nc1ccc(Cl)cc1	1.97	3.83	2400	0.328	0.786	21.9	7.1						
S=C(NNc1c2c(nc3ccccc13)CCCC2)Nc1ccc(Br)cc1	2.96	0.861	788	0.426	0.571	69.5	19.7						
O=[N+]([O-])c1ccc(-n2cc(COc3ccc(/C=N/Nc4c5c(nc6ccccc46)CCCC5)cc3)nn2)cc1	7.7	0.535	830	0.0256	1.05	53.6	2.95						
Cl.Clc1ccc(-n2cc(COc3ccc(/C=N/Nc4c5c(nc6ccccc46)CCCC5)cc3)nn2)cc1	70	4.38	3580	0.0678	7.03	178	8.28	6.07	13.4	72	> 60	Non-Toxic	> 90
NS(=O)(=O)c1ccc(-n2cc(COc3ccc(/C=N/Nc4c5c(nc6ccccc46)CCCC5)cc3)nn2)cc1	1.04	0.807	1580	0.0389	1.11	25.7	16.4						
C(=N\Nc1c2c(nc3ccccc13)CCCC2)/c1ccc(OCc2cn(-c3ccccc3)nn2)cc1	3.1	0.917	1950	0.054	0.9	28.4	34.5						
O=[N+]([O-])c1cccc(-n2cc(COc3ccc(/C=N/Nc4c5c(nc6ccccc46)CCCC5)cc3)nn2)c1	4.18	0.066	976	0.0482	1.46	50.1	28						
NS(=O)(=O)c1ccc(NC(=S)NNc2c3c(nc4ccccc24)CCCC3)cc1	1.19	0.792	295	0.307	0.961	42.3	3.25						
C(=N\Nc1c2c(nc3ccccc13)CCCC2)/c1ccc(OCc2cn(Cc3ccccc3)nn2)cc1	1.2	0.547	2670	0.0361	1.05	33.4	5.71						
COc1ccc(NC(=S)NNc2c3c(nc4ccccc24)CCCC3)cc1	3.33	0.91	1380	0.568	0.293	70.7	4.33						
Brc1ccc(-n2cc(COc3ccc(/C=N/Nc4c5c(nc6ccccc46)CCCC5)cc3)nn2)cc1.Cl	47.9	18.1	1000	0.0926	12.8	96.7	18.6	6.26	13.9			30%	
C#CCOc1ccc(/C=N/Nc2c3c(nc4ccccc24)CCCC3)cc1	2.73	0.438	4810	0.11	2.73	46.1	8.79						
COc1ccc(-n2cc(COc3ccc(/C=N/Nc4c5c(nc6ccccc46)CCCC5)cc3)nn2)cc1.Cl	27.2	2.07	1450	0.0682	2.3	65.1	3.98	6.35	12.2	27	> 60	30%	> 90
C=CCNC(=S)NNc1c2c(nc3ccccc13)CCCC2	0.63	1.35	2770	0.722	5.77	80	6.83						
Cl.O=C(O)c1ccc(-n2cc(COc3ccc(/C=N/Nc4c5c(nc6ccccc46)CCCC5)cc3)nn2)cc1	43.1	1.32	162	0.304	4.03	97.9	3.71	1.77		43			
S=C(NNc1c2c(nc3ccccc13)CCCC2)Nc1ccccc1	6.78	1.85	395	0.748	0.61	82.9	10.9						
Cc1ccc(-n2cc(COc3ccc(/C=N/Nc4c5c(nc6ccccc46)CCCC5)cc3)nn2)cc1.Cl	113	20.2	2580	0.0757	3.75	262	5.85	5.5	10.9	116	> 60	Non-Toxic	> 90
NS(=O)(=O)c1cc2c(cc1Cl)N=CNS2(=O)=O [CHLOROTHIAZIDE]								0.66					
CNC(=C[N+](=O)[O-])NCCSCc1ccc(CN(C)C)o1 [RANITIDINE]								0.04					
